Results from US9107964B2, “Radioactive fluorine-labeled compound” (NIHON MEDI-PHYSICS CO., LTD., priority 2011, dated 2015).

Tests used:
[1] = system: EMT6 tumor-bearing model mice; assay: Biodistribution in tumor and organs of tumor-bearing mouse (Example 14); type: in vivo, mouse (Balb/c nu/nu); conditions: mean
Description: The biodistribution of compounds 1 to 3 and [^18F]FMISO in a tumor and each of the organs of a tumor-bearing mouse was measured.
Tumor-bearing model mice used in this experiment were the same as those prepared in Example 10, and 3 or 4 cases that had attained a tumor volume of 200 to 400 mm^3 were selected from each group. The tumor-bearing model mouse was placed under isoflurane anesthesia, pimonidazole that is a hypoxic marker, was administered via a tail vein, and at 10 minutes thereafter, the respective labeled compound was administered. The tumor-bearing model mouse was sacrificed at 60 minutes and 120 minutes after administration. All of the tumor-bearing model mice were sacrificed by blood-letting from the abdominal aorta or by cardiocentesis, and dissection was carried out immediately thereafter. Other than the tumor, the blood, heart, lung, stomach, liver, gallbladder, kidney, small intestine and large intestine, muscle, and urine were sampled, and the other tissues were defined as the remaining whole body. After the weight of each tissue sampled was measured, the amount of radioactivity of the tissue was measured using a gamma counter, and the biodistribution of each of the labeled compounds was compared by converting it into % ID/g (% injection dose/g organ) of each tissue.
In order to examine a hypoxic state within the tumor, immunohistochemical staining of the sample tumor was carried out so as to ascertain whether or not the interior of the tumor was hypoxic. The sampled tumor was fixed using a 20% formalin buffer, and a paraffin block was prepared using an automatic paraffin-embedding apparatus (model: VIP-5-Jr-J0, Sakura Finetek). A slice (thickness: 3 μm) was prepared by means of a microtome (model: Tissue-Tek Feather Trustome, Sakura Finetek). Immunohistochemical staining was carried out by the same method as in Example 12.

[2] = system: mouse-derived breast cancer cell line (EMT6) tumor-bearing model mice; assay: Measurement of SUV within tumor and calculation of tumor/normal tissue ratio (Example 11); conditions: 60 minutes after administration
Description: The tumor-bearing model mouse thus prepared was placed under isoflurane anesthesia, and about 20 MBq of these sample solutions was administered via a tail vein. static imaging was carried out using a PET system for animals (model: eXplore Vista, manufactured by GE) at 60 minutes after administration. […] Data thus collected were reconstituted by the OSEM method to thus form an image, and a coronal tomographic image and an axial tomographic image were formed using image analysis software.
The maximum value for SUV within the tumor was measured using the axial tomographic images acquired in the Example 10. For all slice planes of an axial tomographic image where the tumor was visualized, a region of interest (hereinafter, called an ROI) was set for the entire tumor and measured. The axial tomographic image was formed from 61 slice planes, and the SUV that was the highest among the measured slice planes was defined as a maximum value for SUV 60 minutes after administration (SUV maximum value in tumor). […] The average value for signal intensity within the ROI was determined, and the average value for values measured for the slice planes was defined as the average value for SUV in normal tissue. The tumor/normal tissue ratio was calculated using the following equation (1) and used as a […] indicator with respect to contrast between the tumor and normal tissue.

[3] = system: hypoxic region of EMT6 tumor (pimonidazole-positive area); assay: Correlation between autoradiographic signal intensity (PSL value) and pimonidazole-positive area (Example 13); type: in vivo, mouse (Balb/c nu/nu); conditions: tumor tissue sections after PET imaging
Description: In order to evaluate whether or not the compound related to the present invention can quantitatively visualize a hypoxic region of a tumor, the following experiment was carried out using compounds 1 to 3 and [^18F]FMISO.
Using a microscope system (model: BZ-9000, Keyence Corporation) a high magnification image of a pimonidazole-positive site was acquired using the entire image of a pathology image obtained by immunohistochemical staining in the Example 12 and a 10× objective lens. The high magnification image was formed with respect to a randomly selected image region. At the same time the image acquisition site was recorded as a navigation image by use of the navigation function of the microscope system. The acquired high magnification image was subjected to image processing, and a pimonidazole-positive area present in the high magnification image was determined.
The autoradiographic image and the stained image of each labeled compound used were those acquired in the Example 12. The resolution of the navigation image was made to match the resolution of the autoradiographic image, and the geometrical positions of two images were aligned using image analysis software.
In the autoradiographic image, an ROI was set for the site that coincided with the high magnification image acquisition site, and the PSL value (Photo-Stimulated Luminescence value) of the ROI was determined. Furthermore, an ROI was set for a site of the same image that contained no sample, and the PSL value thereof was defined as the background. The PSL value of the background was subtracted from the PSL value of the high magnification image acquisition site to obtain the net PSL value. The hypoxic marker pimonidazole-positive area was plotted on the abscissa and the PSL value in the autoradiographic image on the ordinate, and the correlation factor was determined. This series of operations was carried out for each of the labeled compounds.

[4] = system: hypoxic region of EMT6 tumor (pimonidazole-positive site); assay: Localization of accumulation within tumor by autoradiography versus pimonidazole immunohistochemical staining; type: in vivo, mouse (Balb/c nu/nu); conditions: autoradiography and immunohistochemical staining of the same tumor section
Description: In order to evaluate whether or not the compound related to the present invention could visualize a hypoxic region of a tumor, the following experiment was carried out using compounds 1 to 3 and [^18F]FMISO.
Localization of accumulation of each of the labeled compounds within a tumor was confirmed by autoradiography. After PET imaging of a tumor-bearing model mouse prepared by the method of […] was completed, it was sacrificed by blood-letting by cardiocentesis, immediately thereafter the tumor was sampled, and tissue sections (thickness: 10 μm) were prepared using a cryostat (model: CM3050, manufactured by Leica). […] After exposing an imaging plate to this tumor tissue section for 8 to 10 hours, an image was captured using a bioimaging analyzer (model: BAS-2500, manufactured by FUJIFILM). The image thus captured was subjected to image analysis using image analysis software.
Separately, as a method for confirming a hypoxic region within a tumor, the same section after decay of radioactivity was subjected to immunohistochemical staining using pimonidazole that is a hypoxic marker, by the following procedure. […]

[5] = 60 minutes after administration
[6] = 120 minutes after administration

O=[N+]([O-])c1nccn1CC(O)C[18F] (centres unmarked) [[^18F]FMISO, [^18F]fluoromisonidazole, reference compound]
Blood [1, 5]: 4.45 % ID/g | Gall bladder [1, 5]: 12.92 % ID/g | Heart [1, 5]: 5.12 % ID/g | Kidney [1, 5]: 8.52 % ID/g | Large intestine [1, 5]: 13.76 % ID/g | Liver [1, 5]: 5.84 % ID/g | Lung [1, 5]: 4.41 % ID/g | Muscle [1, 5]: 3.80 % ID/g | Small intestine [1, 5]: 5.76 % ID/g | Stomach [1, 5]: 4.17 % ID/g | T/B (tumor/blood ratio) [1, 5]: 1.06 | T/M (tumor/muscle ratio) [1, 5]: 1.24 | Tumor [1, 5]: 4.71 % ID/g | Urine [1, 5]: 34.98 % ID | Blood [1, 6]: 2.26 % ID/g | Gall bladder [1, 6]: 43.43 % ID/g | Heart [1, 6]: 3.33 % ID/g | Kidney [1, 6]: 3.89 % ID/g | Large intestine [1, 6]: 21.16 % ID/g | Liver [1, 6]: 3.85 % ID/g | Lung [1, 6]: 2.69 % ID/g | Muscle [1, 6]: 2.29 % ID/g | Small intestine [1, 6]: 4.63 % ID/g | Stomach [1, 6]: 1.85 % ID/g | T/B (tumor/blood ratio) [1, 6]: 1.91 | T/M (tumor/muscle ratio) [1, 6]: 1.88 | Tumor [1, 6]: 4.28 % ID/g | Urine [1, 6]: 41.45 % ID | SUV maximum value (in tumor) ([2]; about 20 MBq via tail vein, axial PET image, ROI entire tumor): 0.98 | Tumor/normal tissue ratio ([2]; SUV maximum in tumor versus average SUV of left body side (lung and muscle)): 2.03 | Correlation coefficient (pimonidazole-positive area vs PSL value in autoradiographic image) [3]: 0.55 | Coincidence of accumulation site with localization of pimonidazole (hypoxic marker) [4]: did not visually coincide
